# Measured values: patent US11046649B2, “Compounds useful as inhibitors of indoleamine 2,3-dioxygenase and/or tryptophan dioxygenase” (Board of Regents, The University of Texas System, priority 2018, dated 2021)
# pIC50: −log10 of the molar value.
# Target: T1, IDO1 (Homo sapiens, UniProt P14902)
# T1 construct: endogenous in cells; host or cells: HeLa cells (ATCC), IDO1 induced with 10 ng/mL IFNgamma
# Assay: IDO1 cell-based assay
# Conditions: HeLa cells, 10 ng/mL IFNgamma, 24 hours with test compound; N-Formyl Kynurenine and L-tryptophan quantified by RFMS
# T1 sequence (P14902 whole entry): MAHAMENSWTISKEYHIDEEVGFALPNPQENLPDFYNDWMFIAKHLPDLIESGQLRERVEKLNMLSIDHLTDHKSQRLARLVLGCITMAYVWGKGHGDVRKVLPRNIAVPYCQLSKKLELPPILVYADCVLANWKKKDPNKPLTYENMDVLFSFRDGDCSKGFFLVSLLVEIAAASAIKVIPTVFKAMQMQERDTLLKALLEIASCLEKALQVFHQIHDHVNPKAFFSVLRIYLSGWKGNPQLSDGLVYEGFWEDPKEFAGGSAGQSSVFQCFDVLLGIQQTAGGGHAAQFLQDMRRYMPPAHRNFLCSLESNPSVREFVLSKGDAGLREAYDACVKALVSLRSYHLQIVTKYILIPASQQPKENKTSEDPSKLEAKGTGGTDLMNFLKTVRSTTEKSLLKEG
row,Compound,pIC50
1,"CC(C(=O)NC12CC(C(C)O)(C1)C2)[C@H]1[C@@H]2C[C@@H](n3cnc4cc(F)c(F)cc43)C[C@@H]21 (stereo partly drawn) [Example 13, 2-((1R,3s,5S,6r)-3-(5,6-difluoro-1H-benzo[d]imidazol-1-yl)bicyclo[3.1.0]hexan-6-yl)-N-(3-(1-hydroxyethyl)bicyclo[1.1.1]pentan-1-yl)propanamide]",6.20
2,"CCC(C(=O)Nc1ccc(-n2cncn2)cn1)[C@H]1[C@@H]2C[C@@H](Oc3ccnc4ccc(F)cc34)C[C@@H]21 (stereo partly drawn) [Example 119, N-(5-(1H-1,2,4-triazol-1-yl)pyridin-2-yl)-2-((1R,3s,5S,6r)-3-((6-fluoro-quinolin-4-yl)oxy)-bicyclo[3.1.0]hexan-6-yl)-butanamide]",8.16
3,"CC(C(=O)Nc1ccc(Cl)cc1)[C@H]1[C@@H]2C[C@@H](n3cnc4ccc(C#N)cc43)C[C@@H]21 (stereo partly drawn) [Example 16, N-(4-chlorophenyl)-2-((1R,3s,5S,6r)-3-(6-cyano-1H-benzo[d]imidazol-1-yl)-bicyclo[3.1.0]hexan-6-yl)-propanamide]",8.36
4,"CC(C(=O)NC1CCC(F)(F)C1)[C@H]1[C@@H]2C[C@@H](n3cnc4cc(F)c(F)cc43)C[C@@H]21 (stereo partly drawn) [Example 32, 2-((1R,3s,5S,6r)-3-(5,6-difluoro-1H-benzo[d]-imidazol-1-yl)bicyclo-[3.1.0]hexan-6-yl)-N-(3,3-difluorocyclopentyl)-propanamide]",6.54
5,"CC(C(=O)NC12CC(CC#N)(C1)C2)[C@H]1[C@@H]2C[C@@H](Oc3ccnc4ccc(F)cc34)C[C@@H]21 (stereo partly drawn) [Example 8, N-(3-(cyanomethyl)bicyclo[1.1.1]pentan-1-yl)-2-((1R,3s,5S,6r)-3-((6-fluoroquinolin-4-yl)-oxy)bicyclo[3.1.0]hexan-6-yl)propanamide]",7.29
6,"CC(C(=O)Nc1cc(C2CC2)nn1C)[C@H]1[C@@H]2C[C@@H](n3cnc4cc(F)c(F)cc43)C[C@@H]21 (stereo partly drawn) [Example 48, N-(3-cyclopropyl-1-methyl-1H-pyrazol-5-yl)-2-((1R,3s,5S,6r)-3-(5,6-difluoro-1H-benzo[d]-imidazol-1-yl)bicyclo-[3.1.0]hexan-6-yl)-propanamide]",6.23
7,"CC(C(=O)Nc1nc2c(Br)cc(Cl)cc2s1)[C@H]1[C@@H]2C[C@@H](Oc3ccnc4ccc(F)cc34)C[C@@H]21 (stereo partly drawn) [Example 95, N-(4-bromo-6-chloro-benzo[d]thiazol-2-yl)-2-((1R,3s,5S,6r)-3-((6-fluoroquinolin-4-yl)-oxy)bicyclo[3.1.0]hexan-6-yl)propanamide]",6.64
8,"C[C@H](C(=O)Nc1ccc(-c2ccc(F)cc2)cc1)[C@H]1[C@@H]2C[C@@H](n3cnc4cc(F)c(F)cc43)C[C@@H]21 [Example 93, (S)-2-((1R,3R,5S,6r)-3-(5,6-difluoro-1H-benzo[d]-imidazol-1-yl)bicyclo-[3.1.0]hexan-6-yl)-N-(4′-fluoro-[1,1′-biphenyl]-4-yl)propanamide]",6.48
9,"CC(C(=O)NC12CC(C#N)(C1)C2)[C@H]1[C@@H]2C[C@@H](n3cnc4cc(F)c(F)cc43)C[C@@H]21 (stereo partly drawn) [Example 23, N-(3-cyanobicyclo-[1.1.1]pentan-1-yl)-2-((1R,3s,5S,6r)-3-(5,6-difluoro-1H-benzo[d]-imidazol-1-yl)bicyclo-[3.1.0]hexan-6-yl)-propanamide]",5.78
10,"O=C(N[C@H](C1CC1)[C@H]1[C@@H]2C[C@@H](Oc3ccnc4ccc(F)cc34)C[C@@H]21)c1ccc(Cl)cc1 [Example 38, 4-chloro-N-((R)-cyclo-propyl((1R,3s,5S,6r)-3-((6-fluoroquinolin-4-yl)oxy)-bicyclo[3.1.0]hexan-6-yl)-methyl)benzamide]",8.86
11,"CC(C(=O)NC12CC(CO)(C1)C2)[C@H]1[C@@H]2C[C@@H](Oc3ccnc4ccc(F)cc34)C[C@@H]21 (stereo partly drawn) [Example 7, 2-((1R,3s,5S,6r)-3-((6-fluoroquinolin-4-yl)oxy)bicyclo[3.1.0]hexan-6-yl)-N-(3-(hydroxy-methyl)bicyclo[1.1.1]pentan-1-yl)propanamide]",6.33
12,"COc1ccc(NC(=O)C(C)[C@H]2[C@@H]3C[C@@H](n4cnc5cc(F)c(F)cc54)C[C@@H]32)nc1 (stereo partly drawn) [Example 27, 2-((1R,3s,5S,6r)-3-(5,6-difluoro-1H-benzo[d]-imidazol-1-yl)bicyclo-[3.1.0]hexan-6-yl)-N-(5-methoxypyridin-2-yl)-propanamide]",8.18
13,"Cc1ccc(NC(=O)C(C)[C@H]2[C@@H]3C[C@@H](n4cnc5cc(F)c(F)cc54)C[C@@H]32)nc1 (stereo partly drawn) [Example 29, 2-((1R,3s,5S,6r)-3-(5,6-difluoro-1H-benzo[d]-imidazol-1-yl)bicyclo-[3.1.0]hexan-6-yl)-N-(5-methylpyridin-2-yl)-propanamide]",7.96
14,"CC(C(=O)NCC(F)(F)F)[C@H]1[C@@H]2C[C@@H](n3cnc4cc(F)c(F)cc43)C[C@@H]21 (stereo partly drawn) [Example 44, 2-((1R,3s,5S,6r)-3-(5,6-difluoro-1H-benzo[d]-imidazol-1-yl)bicyclo-[3.1.0]hexan-6-yl)-N-(2,2,2-trifluoroethyl)-propanamide]",5.17
15,"CC(C(=O)Nc1nc2ccccc2[nH]1)[C@H]1[C@@H]2C[C@@H](Oc3ccnc4ccc(F)cc34)C[C@@H]21 (stereo partly drawn) [Example 107, N-(1H-benzo[d]imidazol-2-yl)-2-((1R,3s,5S,6r)-3-((6-fluoroquinolin-4-yl)oxy)-bicyclo[3.1.0]hexan-6-yl)propanamide]",8.04
16,"CC(C(=O)NC12CC(c3ccc(F)cc3)(C1)C2)[C@H]1[C@@H]2C[C@@H](Oc3ccnc4ccc(F)cc34)C[C@@H]21 (stereo partly drawn) [Example 100, N-(3-(4-fluorophenyl)-bicyclo[1.1.1]pentan-1-yl)-2-((1R,3s,5S,6r)-3-((6-fluoroquinolin-4-yl)-oxy)bicyclo[3.1.0]hexan-6-yl)propanamide]",7.34
17,"CC(C(=O)Nc1cnn(-c2ccccc2)c1)[C@H]1[C@@H]2C[C@@H](Oc3ccnc4ccc(F)cc34)C[C@@H]21 (stereo partly drawn) [Example 143, 2-((1R,3s,5S,6r)-3-((6-fluoroquinolin-4-yl)-oxy)bicyclo[3.1.0]hexan-6-yl)-N-(1-phenyl-1H-pyrazol-4-yl)propanamide]",8.56
18,"COCC(=O)NC12CC(NC(=O)C(C)[C@H]3[C@@H]4C[C@@H](Oc5ccnc6ccc(F)cc56)C[C@@H]43)(C1)C2 (stereo partly drawn) [Example 132, 2-((1R,3s,5S,6r)-3-((6-fluoroquinolin-4-yl)oxy)-bicyclo[3.1.0]hexan-6-yl)-N-(3-(2-methoxyacetamido)-bicyclo[1.1.1]pentan-1-yl)-propanamide]",6.29
19,"CC(C(=O)NC1CC(F)(F)C1)[C@H]1[C@@H]2C[C@@H](n3cnc4cc(F)c(F)cc43)C[C@@H]21 (stereo partly drawn) [Example 30, 2-((1R,3s,5S,6r)-3-(5,6-difluoro-1H-benzo[d]-imidazol-1-yl)bicyclo-[3.1.0]hexan-6-yl)-N-(3,3-difluorocyclobutyl)-propanamide]",5.79
20,"N#Cc1ccc(NC(=O)C(C2CC2)[C@H]2[C@@H]3C[C@@H](Oc4ccnc5ccc(F)cc45)C[C@@H]32)nc1 (stereo partly drawn) [Example 121, N-(5-cyanopyridin-2-yl)-2-cyclopropyl-2-((1R,3s,5S,6r)-3-((6-fluoroquinolin-4-yl)-oxy)bicyclo[3.1.0]hexan-6-yl)acetamide]",8.78
21,"C[C@H](C(=O)Nc1ccc(-c2cnc[nH]2)cc1)[C@H]1[C@@H]2C[C@@H](n3cnc4cc(F)c(F)cc43)C[C@@H]21 [Example 90, (S)-N-(4-(1H-imidazol-5-yl)phenyl)-2-((1R,3R,5S,6r)-3-(5,6-difluoro-1H-bcnzo[d]-imidazol-1-yl)bicyclo-[3.1.0]hexan-6-yl)-propanamide]",6.26
22,"N#Cc1ccc(NC(=O)C(C2CC2)[C@H]2[C@@H]3C[C@@H](Oc4ccnc5ccc(F)cc45)C[C@@H]32)nn1 (stereo partly drawn) [Example 124, N-(6-cyanopyridazin-3-yl)-2-cyclopropyl-2-((1R,3s,5S,6r)-3-((6-fluoroquinolin-4-yl)oxy)-bicyclo[3.1.0]hexan-6-yl)acetamide]",8.08
23,"CC(C(=O)Nc1nc[nH]n1)[C@H]1[C@@H]2C[C@@H](Oc3ccnc4ccc(F)cc34)C[C@@H]21 (stereo partly drawn) [Example 77, 2-((1R,3s,5S,6r)-3-((6-fluoroquinolin-4-yl)oxy)-bicyclo[3.1.0]hexan-6-yl)-N-(1H-1,2,4-triazol-3-yl)-propanamide]",6.95
24,"CC(C(=O)NCCC(F)(F)F)[C@H]1[C@@H]2C[C@@H](n3cnc4cc(F)c(F)cc43)C[C@@H]21 (stereo partly drawn) [Example 45, 2-((1R,3s,5S,6r)-3-(5,6-difluoro-1H-benzo[d]-imidazol-1-yl)bicyclo-[3.1.0]hexan-6-yl)-N-(3,3,3-bifluoropropyl)-propanamide]",6.18
25,"CC(C(=O)Nc1ccc(C(F)(F)F)cn1)[C@H]1[C@@H]2C[C@@H](Oc3ccnc4ccc(F)cc34)C[C@@H]21 (stereo partly drawn) [Example 59, 2-((1R,3s,5S,6r)-3-((6-fluoroquinolin-4-yl)oxy)-bicyclo[3.1.0]hexan-6-yl)-N-(5-(trifluoromethyl)-pyridin-2-yl)propanamide]",8.43
26,"Cc1nnc(-c2ccc(NC(=O)[C@@H](C)[C@H]3[C@@H]4C[C@@H](n5cnc6cc(F)c(F)cc65)C[C@@H]43)cc2)o1 [Example 81, (S)-2-((1R,3R,5S,6r)-3-(5,6-difluoro-1H-benzo[d]-imidazol-1-yl)-bicyclo[3.1.0]hexan-6-yl)-N-(4-(5-methyl-1,3,4-oxadiazol-2-yl)phenyl)-propanamide]",6.15
27,CC(C(=O)NC12CC(NC(=O)CC#N)(C1)C2)[C@H]1[C@@H]2C[C@@H](Oc3ccnc4ccc(F)cc34)C[C@@H]21 (stereo partly shown) [Example 130],6.20
28,"Cc1cc2ccc(NC(=O)C(C)[C@H]3[C@@H]4C[C@@H](n5cnc6cc(F)c(F)cc65)C[C@@H]43)cc2[nH]1 (stereo partly drawn) [Example 52, 2-((1R,3s,5S,6r)-3-(5,6-difluoro-1H-benzo[d]-imidazol-1-yl)bicyclo-[3.1.0]hexan-6-yl)-N-(2-methyl-1H-indol-6-yl)-propanamide]",7.62
